Paper PMC3853024, “Aromatase inhibitor treatment with an intravaginal device and its effect on pre-ovulatory ovarian follicles in a bovine model” (Reproductive Biology and Endocrinology : RB&E, 2013)

Experiments:
[1] = tested on: plasma LH; assay: Plasma LH concentration (radioimmunoassay) in treated heifers; type: in vivo, cattle (Hereford-cross beef heifers); conditions: n=15, P=0.61
Method: (§1) Heifers in which a CL was detected were given two luteolytic doses of PGF (12 h apart) and monitored by ultrasonography for ovulation. Five to eight days later, the two largest ovarian follicles were ablated by transvaginal ultrasound-guided follicular aspiration to synchronize follicular wave emergence which was expected to occur 1 to 1.5 days later. Prostaglandin (500 μg cloprostenol, Estrumate, Schering-Plough Animal Health, Pointe-Claire, QC, Canada) was given intramuscularly at 60 and 72 h after follicular ablation to induce regression of the CL and shift from a non-ovulatory to an ovulatory follicular wave. […] Devices were inserted on Day 1 and were kept in place until Day 7 or until ovulation was detected, which ever occurred first. […]
Plasma LH concentrations were determined in duplicate using a double-antibody radioimmunoassay (NIDDK-bLH4). […] All samples were analyzed in a single assay; the intra-assay coefficient of variation was 11.4% for low reference samples (mean, 0.9 ng/mL) and 12.2% for high reference samples (mean, 2.1 ng/mL).
(§2) Statistical analyses were done using the Statistical Analysis System software package (SAS Learning Edition 9.1, 2006; SAS Institute Inc., Cary, NC, USA). Time-series data (hormone concentrations, follicle and CL diameter profiles) were analyzed by repeated measures using the PROC MIXED procedure. […]

[2] = tested on: plasma estradiol; assay: Plasma estradiol concentration (radioimmunoassay) in treated heifers; type: in vivo, cattle (Hereford-cross beef heifers)
Method: as §1
Plasma concentrations of estradiol were determined using a commercial radioimmunoassay kit (Double Antibody Estradiol; Diagnostic Products Corp., Los Angeles, CA, USA). […]
as §2

[3] = tested on: plasma FSH; assay: Plasma FSH concentration (radioimmunoassay) in treated heifers; type: in vivo, cattle (Hereford-cross beef heifers); conditions: n=15, P=0.1
Method: as §1
Plasma FSH concentrations were determined in duplicate using a double-antibody radioimmunoassay using NIDDK-anti-oFSH-1 primary antibody and expressed as USDA bovine FSH-Il units. […] All samples were analyzed in a single assay; the intra-assay coefficients of variation were 7.9 and 6.5%, for low (mean, 2.4 ng/mL) and high reference samples (mean 4.9 ng/mL), respectively. […]

[4] = tested on: ovarian function; parameters: method as in PMID 21696721, PMID 22541551; conditions: cited from earlier work
[5] = tested on: pre-ovulatory ovarian follicles; assay: Ovarian ultrasonography in heifers treated with a letrozole-containing intravaginal device; type: in vivo, cattle (Hereford-cross beef heifers); conditions: for Device placement to ovulation: inserted Day 1, n=15, mean±SEM
Method: Hereford-cross beef heifers (n=30), 15 to 20 months of age and weighing between 235 and 405 kg (average 336 kg), were chosen from a herd of 51 heifers maintained in outdoor pens at the University of Saskatchewan Goodale Research Farm (52° North and 106° West). Heifers were fed alfalfa/grass hay and concentrate to gain approximately 1.3 Kg per day and had water ad libitum during the experimental period from October to December. Heifers were initially examined by transrectal ultrasonography (MyLab5 VET, Canadian Veterinary Imaging, Georgetown, Ontario Canada) to detect the presence of a CL (i.e., confirm post-pubertal status; [18]. Animal procedures were performed in accordance with the Canadian Council on Animal Care and were approved by University of Saskatchewan Protocol Review Committee.
Heifers in which a CL was detected were given two luteolytic doses of PGF (12 h apart) and monitored by ultrasonography for ovulation. Five to eight days later, the two largest ovarian follicles were ablated by transvaginal ultrasound-guided follicular aspiration to synchronize follicular wave emergence which was expected to occur 1 to 1.5 days later. Prostaglandin (500 μg cloprostenol, Estrumate, Schering-Plough Animal Health, Pointe-Claire, QC, Canada) was given intramuscularly at 60 and 72 h after follicular ablation to induce regression of the CL and shift from a non-ovulatory to an ovulatory follicular wave. At the time of follicular wave emergence (Day 0; i.e., 1.5 days after follicle ablation), heifers were assigned randomly to two groups and given an intravaginal device containing 1 g of letrozole (letrozole group, n=15) or a placebo (letrozole-free) intravaginal device (control group, n=15). Devices were inserted on Day 1 and were kept in place until Day 7 or until ovulation was detected, which ever occurred first.
Intravaginal devices were prepared using a Cue-Mate spine (Bioniche Animal Health, Bellville, ON, Canada) assembled with two blank (progesterone-free) silicone pods that were coated with a gel-based vehicle containing letrozole or vehicle only (control). The vehicle contained the following (all ingredients % w/w): letrozole 10%, gelatin 20% (Gelatin type B, Fisher Scientific, Pittsburgh, PA, USA), polymer 65% (prepared by mixing distilled water 68%, Poloxamer 188 12% and Poloxamer 407 20%, both from Spectrum Chemical, New Brunswick, NJ, USA) and distilled water 5%.
The observations from ultrasound examinations were recorded on a sketch sheet in which each ovary and its structures (CL and follicles ≥ 4 mm in diameter) were represented by size and location. Ovulation was defined as the disappearance of any follicle ≥8 mm between two consecutive daily examinations and was confirmed by the subsequent development of a CL [18]. Follicular wave emergence was defined as occurring 1.5 days after follicular ablation. The dominant follicle of a wave was defined as the largest antral follicle of that wave.
Statistical analyses were done using the Statistical Analysis System software package (SAS Learning Edition 9.1, 2006; SAS Institute Inc., Cary, NC, USA). Time-series data (hormone concentrations, follicle and CL diameter profiles) were analyzed by repeated measures using the PROC MIXED procedure. The main effects were treatment (letrozole and control), time, and their interactions (noted in figures as treatment, day and treat*day, respectively). Single-point measurements (dominant follicle diameter at device placement, maximum diameter of extant dominant follicle, intervals from ablation to wave emergence, and from device placement to ovulation) were analyzed by t-tests. Individual time point comparisons between treatment groups were performed using least significant difference test. Significance was defined as P ≤ 0.05.

[6] = single intravenous dose Day 3 post-ovulation, or 3-day regimen Days 1–3, 3–5 or 5–7 post-ovulation

## N#Cc1ccc(C(c2ccc(C#N)cc2)n2cncn2)cc1 [Letrozole]
[1]
  Mean plasma LH concentrations versus control: did not differ
[2]; n=15
  Delay of preovulatory rise in estradiol versus control: 24 h
[2]; n=15, P=0.04
  Plasma estradiol concentrations versus control: lower
[3]
  Plasma FSH concentrations versus control: tendency for lower
[4]; heifers treated with letrozole for 3 days
  Corpora lutea size following treatment: larger corpora lutea
[4]; [6]
  Circulating FSH concentration: did not induce an elevation
  Mean plasma luteinizing hormone (LH) concentrations: did increase
[5]; Day 1, at device insertion (baseline), n=15, mean±SEM
  Dominant follicle diameter at device placement: 4.2±0.46 mm
[5]; after post-treatment ovulation, n=15, P=0.82
  Corpus luteum diameter profile versus control: not different
[5]; all heifers, regardless of treatment
  Number of ovulations: Single ovulation
[5]; during treatment, n=15, P=0.05
  Day-to-day diameter profile of the dominant follicle versus control: larger
[5]; intravaginal device containing 1 g letrozole
  Device placement to ovulation: 6.1 ± 0.25 days
[5]; intravaginal device containing 1 g letrozole, listed as letrozole
  Device placement to ovulation: 6.1 ± 0.25 days
[5]; intravaginal device containing 1 g letrozole, n=15
  Delay of ovulation versus control: 24 h
[5]; intravaginal device containing 1 g letrozole, n=15, mean±SEM
  Max. diameter of extant dominant follicle: 14.6±0.51 mm
[5]; intravaginal device containing 1 g letrozole, n=15, mean±SEM, listed as letrozole
  Max. diameter of extant dominant follicle: 14.6+/-0.51 mm
